According to patent publication US4027039A (priority 1975, dated 1977):
Several values for one entry are separate records, joined by “and”; a condition that tells them apart may be missing. Equal entries are not always repeated. Where two headings read alike, the source gives them in different places.

Experiments:
[1] = test system: viral infections; test: Antiviral screening in animals, general statements; settings: mouse, in vivo
[2] = test system: Influenza B Massachusetts virus; test: Influenza B Mass. in mice, oral; late read day 5 (Table 39), 7 (Table 40), 11 (Tables 61, 65); control fraction 16/20 (Table 61), else 100%; assay type: in vivo, mouse
Method: A portion of a commercially available sample of amantadine was recrystallized from isopropanol. The activity of the material against Influenza B Mass. was tested for the sample as obtained, the recrystallized portion, and the mother liquor obtained from recrystallizing the portion.

[3] = test system: Herpes virus
[4] = test system: Herpes virus; test: Herpes virus in chicken eggs, single dose 24 hours pre-infection; assay type: in vivo, chick embryo
[5] = test system: Influenza, Ann Arbor virus; test: Influenza Ann Arbor in mice, oral; schedule by table; late read day 5 (Tables 15, 25, 29, 30), 6 (18, 20, 22, 23, 26, 27, 28, 54), 7 (14, 19, 21, 24, 53, 56), 8 (16, 17, 51), 9 (11, 55); assay type: in vivo, mouse
[6] = test system: Vaccinia IHD virus; assay type: in vivo, mouse
[7] = test system: Influenza, Ann Arbor virus; test: Influenza Ann Arbor in mice, subcutaneous; late read day 9 (Table 11), 7 (Tables 12, 14), 5 (Table 13); assay type: in vivo, mouse

## N=C(N)NN [aminoguanidine, bicarbonate]
[1]
  activity in words: very pronounced protective effects
[2]; total dose 40 pg
  Survivors: 0
[2]; total dose 400 pg
  Survivors: 2
[2]; total dose 4 ng
  Survivors: 0
[2]; total dose 40 ng
  Survivors: 1
[2]; total dose 400 ng
  Survivors: 1
[2]; total dose 4 μg
  Survivors: 1

## NC12CC3CC(CC(C3)C1)C2 [Recrystallized amantadine, amantadine, reference compound]
[2]; total dose 60 ng
  No. animals surviving after 11 days: 4
  Survivors: 2
[2]; total dose 600 ng
  No. animals surviving after 11 days: 3
  Survivors: 3
[2]; total dose 6 μg
  No. animals surviving after 11 days: 5
  Survivors: 5
[2]; total dose 60 μg
  No. animals surviving after 11 days: 5
  Survivors: 2
[2]; total dose 600 μg
  No. animals surviving after 11 days: 3
  Survivors: 2
[2]; total dose 6 mg
  No. animals surviving after 11 days: 6
  Survivors: 4

## O=C(C=NO)c1ccccc1 [phenylglyoxaloxime]
[1]
  activity in words: active

## NNC(=S)NC12CC3CC(CC(C3)C1)C2
[3]; total dose 4 pg
  No. animals surviving when 18/20 of controls are dead: 1
  Survivors: 1
[3]; total dose 40 pg
  No. animals surviving when 18/20 of controls are dead: 1
  Survivors: 1
[3]; total dose 400 pg
  No. animals surviving when 18/20 of controls are dead: 3
  Survivors: 3
[3]; total dose 4 ng
  No. animals surviving when 18/20 of controls are dead: 2
  Survivors: 2
[3]; total dose 40 ng
  No. animals surviving when 18/20 of controls are dead: 2
  Survivors: 2
[3]; total dose 400 ng
  No. animals surviving when 18/20 of controls are dead: 3
  Survivors: 3

## NNc1nncc2ccccc12 [Hydralazine, hydralazine, reference compound]
[3]; mouse, in vivo
  activity in words: effective

## NN [hydrazine]
[4]; 2 μg
  Deaths on day 1: 3
  Deaths on day 2: 4
  Deaths on day 3: 1
  Deaths on day 4: 1
  No. dying 5-22 day: 0
  No. hatched: 1
  No. living longer than controls: 1
  Total deaths, 4th day: 9
[4]; 20 μg
  Deaths on day 1: 3
  Deaths on day 3: 4
  No. dying 5-22 day: 0
  No. hatched: 1
  No. living longer than controls: 1
  Total deaths, 4th day: 11
[4]; .00005 μg
  Deaths on day 3: 5
  No. dying 5-22 day: 0
  No. living longer than controls: 1
  Total deaths, 4th day: 9
[4]; .0005 μg
  Deaths on day 2: 6
  Deaths on day 3: 4
  No. dying 5-22 day: 0
  No. living longer than controls: 0
  Total deaths, 4th day: 12
[4]; .005 μg
  Deaths on day 2: 7
  Deaths on day 3: 4
  No. dying 5-22 day: 0
  No. living longer than controls: 0
  Total deaths, 4th day: 11
[4]; .05 μg
  Deaths on day 2: 5
  Deaths on day 3: 3
  No. dying 5-22 day: 0
  No. living longer than controls: 0
  Total deaths, 4th day: 10
[4]; .5 μg
  Deaths on day 3: 5
  Deaths on day 4: 1
  No. dying 5-22 day: 0
  No. living longer than controls: 0
  Total deaths, 4th day: 10
[4]; all doses
  Total no. living longer than controls: 3
[5]; oral
  activity in words: much less significant activity
[3]; total dose .0005 μg
  No. animals surviving after 6-9 days: 6 and 5
[3]; total dose .005 μg
  No. animals surviving after 6-9 days: 6
[3]; total dose .05 μg
  No. animals surviving after 6-9 days: 3 and 5
  No. animals surviving when 100% (or given fraction) of controls are dead: 1
[3]; total dose .5 μg
  No. animals surviving when 100% (or given fraction) of controls are dead: 1
[6]; 10 ng, day 6
  Statistical Significance of Tail Lesions: < .01
[6]; 10 ng, day 7
  Statistical Significance of Tail Lesions: < .05
[6]; 10 ng, day 11
  Statistical Significance of Tail Lesions: < .01
[6]; 10 ng, day 12
  Statistical Significance of Tail Lesions: < .01
[6]; 10 ng, day 14
  Statistical Significance of Tail Lesions: < .01
[6]; 10 ng, day 17
  Statistical Significance of Tail Lesions: < .01
[6]; 10 ng, day 21
  Statistical Significance of Tail Lesions: < .01
[6]; 1 μg, day 10
  Statistical Significance of Tail Lesions: < .01
[6]; 1 μg, day 11
  Statistical Significance of Tail Lesions: < .01
[6]; 1 μg, day 12
  Statistical Significance of Tail Lesions: < .01
[6]; 1 μg, day 14
  Statistical Significance of Tail Lesions: < .01
[6]; 1 μg, day 17
  Statistical Significance of Tail Lesions: < .01
[6]; 1 μg, day 21
  Statistical Significance of Tail Lesions: < .01
[6]; 10 [μg], day 10
  Statistical Significance of Tail Lesions: < .05
[6]; 10 [μg], day 11
  Statistical Significance of Tail Lesions: < .01
[6]; 10 [μg], day 12
  Statistical Significance of Tail Lesions: < .01
[6]; 10 [μg], day 14
  Statistical Significance of Tail Lesions: < .01
[6]; 10 [μg], day 17
  Statistical Significance of Tail Lesions: < .01
[6]; 10 [μg], day 21
  Statistical Significance of Tail Lesions: < .01
[6]; 100 [ng], day 5
  Statistical Significance of Tail Lesions: < .05
[6]; 100 [ng], day 6
  Statistical Significance of Tail Lesions: < .01
[6]; 100 [ng], day 7
  Statistical Significance of Tail Lesions: < .01
[6]; 100 [ng], day 8
  Statistical Significance of Tail Lesions: < .05
[6]; 100 [ng], day 10
  Statistical Significance of Tail Lesions: < .01
[6]; 100 [ng], day 11
  Statistical Significance of Tail Lesions: < .01
[6]; 100 [ng], day 12
  Statistical Significance of Tail Lesions: < .01
[6]; 100 [ng], day 14
  Statistical Significance of Tail Lesions: < .01
[6]; 100 [ng], day 17
  Statistical Significance of Tail Lesions: < .01
[6]; 100 [ng], day 21
  Statistical Significance of Tail Lesions: < .01

## N#CCC(=O)NN [Cyonacetic Acid Carbazide, Cyanoacetic Acid Hydrazide]
[2]; total dose .000005 μg (5 pg)
  No. animals surviving after 5 days (Table 61: 11 days): 3
  No. animals surviving when 100% (Table 61: 16/20) of controls are dead: 3
  Survivors: 3
[2]; total dose .00005 μg (50 pg)
  No. animals surviving after 5 days (Table 61: 11 days): 4
  No. animals surviving when 100% (Table 61: 16/20) of controls are dead: 4
  Survivors: 4
[2]; total dose .0005 μg (500 pg)
  No. animals surviving after 5 days (Table 61: 11 days): 8
  No. animals surviving when 100% (Table 61: 16/20) of controls are dead: 5
  Survivors: 5
[2]; total dose .005 μg (5 ng)
  No. animals surviving after 5 days (Table 61: 11 days): 2
  No. animals surviving when 100% (Table 61: 16/20) of controls are dead: 2
  Survivors: 1
[2]; total dose .05 μg (50 ng)
  No. animals surviving after 5 days (Table 61: 11 days): 4
  No. animals surviving when 100% (Table 61: 16/20) of controls are dead: 4
  Survivors: 3
[2]; total dose .5 μg (500 ng)
  No. animals surviving after 5 days (Table 61: 11 days): 5
  No. animals surviving when 100% (Table 61: 16/20) of controls are dead: 4
  Survivors: 4

## N-hydroxyphthalamide
[1]
  activity in words: active

## NC(=S)NN=C1CCCCC1 [Cyclohexanone, thiosemicarBazone, Cyclohexanone, thiosemicarbazone]
[2]; total dose .000005 μg (5 pg)
  No. animals surviving after 5 days (Table 61: 11 days): 7
  No. animals surviving when 100% (Table 61: 16/20) of controls are dead: 5
  Survivors: 5
[2]; total dose .00005 μg (50 pg)
  No. animals surviving after 5 days (Table 61: 11 days): 4
  No. animals surviving when 100% (Table 61: 16/20) of controls are dead: 3
  Survivors: 2
[2]; total dose .0005 μg (500 pg)
  No. animals surviving after 5 days (Table 61: 11 days): 2
  No. animals surviving when 100% (Table 61: 16/20) of controls are dead: 2
  Survivors: 2
[2]; total dose .005 μg (5 ng)
  No. animals surviving after 5 days (Table 61: 11 days): 3
  No. animals surviving when 100% (Table 61: 16/20) of controls are dead: 2
  Survivors: 2
[2]; total dose .05 μg (50 ng)
  No. animals surviving after 5 days (Table 61: 11 days): 7
  No. animals surviving when 100% (Table 61: 16/20) of controls are dead: 7
  Survivors: 5
[2]; total dose .5 μg (500 ng)
  No. animals surviving after 5 days (Table 61: 11 days): 2
  No. animals surviving when 100% (Table 61: 16/20) of controls are dead: 1
  Survivors: 1

## N=C(N)NN [aminoguanidine]
[7]; subcutaneous, only at one dose level
  survival: 50%
[7]; total dose 3 μg
  No. animals surviving after 7 days: 6
  Survivors: 2
[7]; total dose 30 μg
  Survivors: 2
[7]; total dose .0003 μg
  No. animals surviving after 7 days: 8
  Survivors: 5
[7]; total dose .003 μg
  No. animals surviving after 7 days: 8
  Survivors: 0
[7]; total dose .03 μg
  Survivors: 1
[7]; total dose .3 μg
  Survivors: 1
[5]; oral
  activity in words: most active
[5]; oral, high dose
  treated animals survived: 50%
[5]; total dose 300 pg
  No. animals surviving after 5-7 days: 6
  Survivors: 1
[5]; total dose 3 ng
  Survivors: 1
[5]; total dose 30 ng
  Survivors: 2
[5]; total dose 300 ng
  Survivors: 4
[5]; total dose 3 μg
  No. animals surviving after 5-7 days: 8
  Survivors: 3
[5]; total dose 30 μg
  No. animals surviving after 5-7 days: 8
